Experimental findings from patent US20250353855A1, “HETEROCYCLIC AND HETEROARYL COMPOUNDS FOR TREATING HUNTINGTON'S DISEASE” (PTC THERAPEUTICS, INC., priority 2022, published 2025) are described below.

Where only a bound is given, the exact number is not on record here.

The test deals with Endogenous Huntingtin Protein. Put plainly: Endogenous Huntingtin Protein Assay (ELISA-based MSD electrochemiluminescence). In kind it is cell-based. The conditions noted are these: MSD plates coated with MW1 (expanded polyglutamine) or MAB2166 capture antibody; lysates; read-out: IC50. The method, then: Compounds of Formula (T) were tested using the Meso Scale Discovery (MSD) Assay provided in International Application No. PCT/US2016/066042, filed on Dec. 11, 2016 and claiming priority to U.S. Provisional Application 62/265,652 filed on Dec. 10, 2015, the entire contents of which are incorporated herein by reference.
The Endogenous Huntingtin Protein assay used in Example 1 was developed using the ELISA-based MSD electrochemiluminescence assay platform.
Meso Scale Discovery (MSD) 96-well or 384-well plates were coated overnight at 4° C. with MW1 (expanded polyglutamine) or MAB2166 monoclonal antibody (for capture) at a concentration of 1 μg/mL in PBS (30 μL per well). Plates were then washed three times with 300 μL wash buffer (0.05% Tween-20 in PBS) and blocked (100 μL blocking buffer; 5% BSA in PBS) for 4-5 hours at room temperature with rotational shaking and then washed three times with wash buffer.
Samples (25 μL) were transferred to the antibody-coated MSD plate and incubated overnight at 4° C. After removal of the lysates, the plate was washed three times with wash buffer, and 25 μL of #5656S (Cell signaling; rabbit monoclonal) secondary antibody (diluted to 0.25 μg/mL in 0.05% Tween-20 in blocking buffer) was added to each well and incubated with shaking for 1 Hour at room temperature. Following incubation with the secondary antibody, the wells were rinsed with wash buffer after which 25 μL of goat anti-rabbit SULFO TAG secondary detection antibody (required aspect of the MSD system) (diluted to 0.25 μg/mL in 0.05% Tween-20 in blocking buffer) was added to each well and incubated with shaking for 1 hour at room temperature. After rinsing three times with wash buffer, 150 μL of read buffer T with surfactant (MSD) were added to each empty well, and the plate was imaged on a SI 6000 imager (MSD) according to manufacturers' instructions provided for 96- or 384-well plates.
(ELISA stands for enzyme-linked immunosorbent assay.)
As to `Cn1nnc2cc(-c3cc4nnn(C5CC(C)(C)NC6(CC6)C5)c4nn3)c(O)cc21` (racemic) [Cpd 7, 5-[rac-3-(5,5-dimethyl-4-azaspiro[2.5]octan-7-yl)-3H-[1,2,3]triazolo[4,5-c]pyridazin-6-yl]-1-methyl-1H-benzotriazol-6-ol], the IC50 fell in the range of 500 to 1000 nM.

`Cc1nc2cc(O)c(-c3cc4ncn([C@H]5C[C@@H]6CC[C@@H](N6)[C@H]5F)c4nn3)cc2s1` (single isomer, unassigned) [Cpd 9, 6-{7-[(1R,2R,3S,5S)-2-fluoro-8-azabicyclo[3.2.1]octan-3-yl]-7H-imidazo[4,5-c]pyridazin-3-yl}-2-methyl-1,3-benzothiazol-5-ol or 6-{7-[(1S,2S,3R,5R)-2-fluoro-8-azabicyclo[3.2.1]octan-3-yl]-7H-imidazo[4,5-c]pyridazin-3-yl}-2-methyl-1,3-benzothiazol-5-ol]: the IC50 was < 100 nM. The same measure for `Cc1nc2cc(O)c(-c3cc4ccn([C@H]5C[C@@H]6CC[C@@H](N6)[C@H]5F)c4nn3)cc2s1` (single isomer, unassigned) [Cpd 10, 6-{7-[(1R,2R,3S,5S)-2-fluoro-8-azabicyclo[3.2.1]octan-3-yl]-7H-pyrrolo[2,3-c]pyridazin-3-yl}-2-methyl-1,3-benzothiazol-5-ol or 6-{7-[(1S,2S,3R,5R)-2-fluoro-8-azabicyclo[3.2.1]octan-3-yl]-7H-pyrrolo[2,3-c]pyridazin-3-yl}-2-methyl-1,3-benzothiazol-5-ol]: < 100 nM. For `Cc1nc2cc(O)c(-c3cc4ccn([C@@H]5C[C@H]6CC[C@H](N6)[C@@H]5F)c4nn3)cc2s1` (single isomer, unassigned) [Cpd 22, 6-{7-[(1S,2S,3R,5R)-2-fluoro-8-azabicyclo[3.2.1]octan-3-yl]-7H-pyrrolo[2,3-c]pyridazin-3-yl}-2-methyl-1,3-benzothiazol-5-ol or 6-{7-[(1R,2R,3S,5S)-2-fluoro-8-azabicyclo[3.2.1]octan-3-yl]-7H-pyrrolo[2,3-c]pyridazin-3-yl}-2-methyl-1,3-benzothiazol-5-ol] the value was < 100 nM; for `Cc1nc2cc(-c3cc4ccn([C@@H]5CCNC6(CCC6)[C@@H]5F)c4nn3)c(O)cc2s1` (single isomer, unassigned) [Cpd 34, 5-{7-[(8R,9R)-9-fluoro-5-azaspiro[3.5]nonan-8-yl]-7H-pyrrolo[2,3-c]pyridazin-3-yl}-2-methyl-1,3-benzothiazol-6-ol or 5-{7-[(8S,9S)-9-fluoro-5-azaspiro[3.5]nonan-8-yl]-7H-pyrrolo[2,3-c]pyridazin-3-yl}-2-methyl-1,3-benzothiazol-6-ol], 100 to 500 nM; for `Cc1nc2cc(O)c(-c3cc4c(nn3)N([C@H]3C[C@@H]5CC[C@@H](N5)[C@H]3F)CC4)cc2s1` (single isomer, unassigned) [Cpd 58, 6-{7-[(1R,2R,3S,5S)-2-fluoro-8-azabicyclo[3.2.1]octan-3-yl]-6,7-dihydro-5H-pyrrolo[2,3-c]pyridazin-3-yl}-2-methyl-1,3-benzothiazol-5-ol or 6-{7-[(1S,2S,3R,5R)-2-fluoro-8-azabicyclo[3.2.1]octan-3-yl]-6,7-dihydro-5H-pyrrolo[2,3-c]pyridazin-3-yl}-2-methyl-1,3-benzothiazol-5-ol], < 100 nM. As for `Cc1nc2cc(O)c(-c3cc4c(nn3)N([C@@H]3CC5(CCC5)NC[C@@H]3F)CC4)cc2s1` (single isomer, unassigned) [Cpd 61, 6-{7-[(7S,8R)-7-fluoro-5-azaspiro[3.5]nonan-8-yl]-6,7-dihydro-5H-pyrrolo[2,3-c]pyridazin-3-yl}-2-methyl-1,3-benzothiazol-5-ol or 6-{7-[(7R,8S)-7-fluoro-5-azaspiro[3.5]nonan-8-yl]-6,7-dihydro-5H-pyrrolo[2,3-c]pyridazin-3-yl}-2-methyl-1,3-benzothiazol-5-ol], the IC50 is < 100 nM. For `Cc1nc2cc(O)c(-c3cc4c(nn3)N([C@@H]3CCNC(C)(C)[C@@H]3F)CC4)cc2s1` (single isomer, unassigned) [Cpd 63, 6-{7-[(3R,4R)-3-fluoro-2,2-dimethylpiperidin-4-yl]-6,7-dihydro-5H-pyrrolo[2,3-c]pyridazin-3-yl}-2-methyl-1,3-benzothiazol-5-ol or 6-{7-[(3S,4S)-3-fluoro-2,2-dimethylpiperidin-4-yl]-6,7-dihydro-5H-pyrrolo[2,3-c]pyridazin-3-yl}-2-methyl-1,3-benzothiazol-5-ol] the value was < 100 nM.

Turning to `Cc1nc2cc(O)c(-c3cc4c(nn3)N([C@@H]3CCNC(C)(C)[C@@H]3F)CC4)cc2o1` (single isomer, unassigned) [Cpd 64, 6-{7-[(3R,4R)-3-fluoro-2,2-dimethylpiperidin-4-yl]-6,7-dihydro-5H-pyrrolo[2,3-c]pyridazin-3-yl}-2-methyl-1,3-benzoxazol-5-ol or 6-{7-[(3S,4S)-3-fluoro-2,2-dimethylpiperidin-4-yl]-6,7-dihydro-5H-pyrrolo[2,3-c]pyridazin-3-yl}-2-methyl-1,3-benzoxazol-5-ol], the IC50 is < 100 nM. As to `Cc1nc2cc(-c3cc4c(nn3)N(C3CCNC5(CCC5)[C@@H]3F)CC4)c(O)cc2s1` (single isomer, unassigned) [Cpd 74, 5-{7-[(8R,9R)-9-fluoro-5-azaspiro[3.5]nonan-8-yl]-6,7-dihydro-5H-pyrrolo[2,3-c]pyridazin-3-yl}-2-methyl-1,3-benzothiazol-6-ol or 5-{7-[(8S,9S)-9-fluoro-5-azaspiro[3.5]nonan-8-yl]-6,7-dihydro-5H-pyrrolo[2,3-c]pyridazin-3-yl}-2-methyl-1,3-benzothiazol-6-ol], the IC50 is < 100 nM. In the case of `Cc1cc(=O)oc2cc(O)c(-c3cc4c(nn3)N([C@@H]3C[C@H]5CC[C@H](N5)[C@@H]3F)CC4)cc12` (single isomer, unassigned) [Cpd 79, 6-{7-[(1S,2S,3R,5R)-2-fluoro-8-azabicyclo[3.2.1]octan-3-yl]-6,7-dihydro-5H-pyrrolo[2,3-c]pyridazin-3-yl}-7-hydroxy-4-methyl-2H-1-benzopyran-2-one or 6-{7-[(1R,2R,3S,5S)-2-fluoro-8-azabicyclo[3.2.1]octan-3-yl]-6,7-dihydro-5H-pyrrolo[2,3-c]pyridazin-3-yl}-7-hydroxy-4-methyl-2H-1-benzopyran-2-one], the IC50 is < 100 nM. For `Cc1cnc2cc(-c3cc4c(nn3)N([C@@H]3C[C@H]5CC[C@H](N5)[C@@H]3F)CC4)c(O)cc2n1` (single isomer, unassigned) [Cpd 91, 7-{7-[(1S,2S,3R,5R)-2-fluoro-8-azabicyclo[3.2.1]octan-3-yl]-6,7-dihydro-5H-pyrrolo[2,3-c]pyridazin-3-yl}-3-methylquinoxalin-6-ol or 7-{7-[(1R,2R,3S,5S)-2-fluoro-8-azabicyclo[3.2.1]octan-3-yl]-6,7-dihydro-5H-pyrrolo[2,3-c]pyridazin-3-yl}-3-methylquinoxalin-6-ol] the value was < 100 nM; for `CC1(C)CC(n2nnc3cc(-c4cc5c(cc4O)C(=O)CC5)nnc32)CC(C)(C)N1` [Cpd 1, 6-hydroxy-5-[3-(2,2,6,6-tetramethylpiperidin-4-yl)-3H-[1,2,3]triazolo[4,5-c]pyridazin-6-yl]-2,3-dihydro-1H-inden-1-one], 1000 to 3000 nM. The same measure for `CC1(C)CC(n2nnc3cc(-c4cc5cccnc5cc4O)nnc32)CC(C)(C)N1` [Cpd 2, 6-[3-(2,2,6,6-tetramethylpiperidin-4-yl)-3H-[1,2,3]triazolo[4,5-c]pyridazin-6-yl]quinolin-7-ol]: 1000 to 3000 nM; for `Cc1nc2cc(O)c(-c3cc4ccn([C@H]5CC(C)(C)NC(C)(C)[C@H]5F)c4nn3)cc2o1` [Cpd 3, 6-{7-[(3S,4S)-3-fluoro-2,2,6,6-tetramethylpiperidin-4-yl]-7H-pyrrolo[2,3-c]pyridazin-3-yl}-2-methyl-1,3-benzoxazol-5-ol]: < 100 nM; for `Cc1nc2cc(O)c(-c3cc4ccn([C@H]5CC(C)(C)NC(C)(C)[C@H]5F)c4nn3)cc2s1` [Cpd 4, 6-{7-[(3S,4S)-3-fluoro-2,2,6,6-tetramethylpiperidin-4-yl]-7H-pyrrolo[2,3-c]pyridazin-3-yl}-2-methyl-1,3-benzothiazol-5-ol]: < 100 nM.

Regarding `Cc1cnc2cc(-c3cc4ccn([C@H]5CC(C)(C)NC(C)(C)[C@H]5F)c4nn3)c(O)cc2n1` [Cpd 5, 7-{7-[(3S,4S)-3-fluoro-2,2,6,6-tetramethylpiperidin-4-yl]-7H-pyrrolo[2,3-c]pyridazin-3-yl}-3-methylquinoxalin-6-ol], the concentration for half-maximal inhibition (IC50) is < 100 nM. For `Cc1nc2cc(-c3cc4ccn([C@H]5CC(C)(C)NC(C)(C)[C@H]5F)c4nn3)c(O)cc2o1` [Cpd 6, 5-{7-[(3S,4S)-3-fluoro-2,2,6,6-tetramethylpiperidin-4-yl]-7H-pyrrolo[2,3-c]pyridazin-3-yl}-2-methyl-1,3-benzoxazol-6-ol], the IC50 was < 100 nM.

Consider `Cc1nc2cc(-c3cc4ccn([C@H]5CC(C)(C)NC(C)(C)[C@H]5F)c4nn3)c(O)cc2s1` [Cpd 8, 5-{7-[(3S,4S)-3-fluoro-2,2,6,6-tetramethylpiperidin-4-yl]-7H-pyrrolo[2,3-c]pyridazin-3-yl}-2-methyl-1,3-benzothiazol-6-ol], for which the IC50 was < 100 nM.

The IC50 is the point on the concentration scale where inhibition reaches its midpoint.
